Measurements reported in PubChem BioAssay (NCI).
Several values for one entry are separate records, joined by “and”; a condition that tells them apart may be missing. Equal entries are not always repeated.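 1) Cells in 96-well plates. 2) Compound, 48 h, 5 concentrations. 3) Linear interpolation between surrounding doses. 4) Unreached endpoint = highest concentration. GI50 = concentration required for 50% inhibition of growth. TGI: total growth inhibition.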

Legend:
Assay in all cases: growth of human tumour cells (NCI), 48 h
786-0 renal = system: 786-0 renal
ACHN renal = system: ACHN renal
CCRF-CEM leukemia = system: CCRF-CEM leukemia
HOP-92 NSCLC = system: HOP-92 NSCLC
MCF7 breast = system: MCF7 breast
NCI-H460 lung = system: NCI-H460 lung
SK-MEL-5 melanoma = system: SK-MEL-5 melanoma
UACC-257 melanoma = system: UACC-257 melanoma
UACC-62 melanoma = system: UACC-62 melanoma
UO-31 renal = system: UO-31 renal

| SMILES | TGI (786-0 renal) [µM] | TGI (ACHN renal) [µM] | TGI (CCRF-CEM leukemia) | TGI (HOP-92 NSCLC) [µM] | TGI (MCF7 breast) [µM] | TGI (NCI-H460 lung) [µM] | TGI (SK-MEL-5 melanoma) | TGI (UACC-257 melanoma) [µM] | TGI (UACC-62 melanoma) [µM] | TGI (UO-31 renal) | GI50 (786-0 renal) [µM] | GI50 (ACHN renal) [µM] | GI50 (CCRF-CEM leukemia) [µM] | GI50 (HOP-92 NSCLC) [µM] | GI50 (MCF7 breast) [µM] | GI50 (NCI-H460 lung) [µM] | GI50 (SK-MEL-5 melanoma) [µM] | GI50 (UACC-257 melanoma) [µM] | GI50 (UACC-62 melanoma) [µM] | GI50 (UO-31 renal) [µM] |
| --- | --- | --- | --- | --- | --- | --- | --- | --- | --- | --- | --- | --- | --- | --- | --- | --- | --- | --- | --- | --- |
| O=C1C=C(Nc2nc(C(=O)O)cc(=O)[nH]2)c2ccccc2C1=O | > 100 | > 100 | > 100 µM | > 100 | > 100 | > 100 | > 100 µM | > 100 | > 100 | > 100 µM | – | – | – | – | – | – | – | – | – | – |
| CCCCc1nc2cc(/C=C/C(=O)NO)ccc2n1CCN(CC)CC | 11.5 | 1.44 | > 100 µM | 0.456 | > 20.3 | > 100 | 0.339 µM | 0.58 | 0.743 | 4.92 µM | 0.46 | 0.285 | 0.317 | 0.0821 | 0.202 | 0.312 | 0.146 | 0.0759 | 0.188 | 0.25 |
| COC(=O)[C@H](Cc1ccccc1)NC(=O)[C@@H](OC)[C@@H]1Cc2cc3cc(OC4CC(OC5CC(O)C(O)C(C)O5)C(O)C(C)O4)c(C)c(O)c3c(O)c2C(=O)[C@H]1OC1CC(OC2CC(OC3CC(C)(O)C(O)C(C)O3)C(O)C(C)O2)C(O)C(C)O1 (stereo partly drawn) | > 14.3 | – | > 14.3 µM | 0.202 | 0.241 | > 14.3 | 0.0357 µM | 2.54 | 0.0209 | 0.332 µM | 0.0188 | – | 0.0137 | 0.00451 | 0.00534 | 0.0197 | 0.00691 | 0.0103 | 0.00473 | 0.0343 |
| CC(C)(C)c1nnc2n(c1=O)N=CC(c1ccc(Br)cc1)S2 (stereo not drawn) | > 100 | 75.9 | > 100 µM | > 100 | > 100 | > 100 | 38.3 µM | 69.4 | 32.7 | 47.4 µM | 32.3 | 29.6 | 31.3 | 40.9 | 42 | 30.1 | 18.6 | 30.5 | 17.5 | 20.7 |
| CC(C)(C)n1cc(-c2ccnc(NCCNS(=O)(=O)c3cccc4ccccc34)c2)c(-c2cccc(F)c2)n1 | 6.75 | 49 | > 100 µM | 21.2 | 59.6 | 56.7 | 24.9 µM | 86.7 | 47.7 | 59.8 µM | 2.44 | 18.9 | 8.38 | 2.74 | 16.3 | 20 | 11.9 | 25 | 17.3 | 10.4 |
| Cc1[nH]nc(C(=O)Nc2n[nH]c3ccccc23)c1[N+](=O)[O-] | > 100 | > 100 | – | > 100 | > 100 | > 100 | > 100 µM | > 100 | > 100 | > 100 µM | > 100 | > 100 | – | > 100 | 53.3 | > 85.1 | > 60.1 | > 100 | > 93.7 | > 100 |
| O=[N+]([O-])c1ccc2c(c1)S(=O)c1ccccc1-2 (stereo not drawn) | > 100 | > 100 | > 100 µM | > 100 | > 100 | > 100 | > 100 µM | > 100 | > 100 | – | – | – | – | – | – | – | – | – | – | – |
| C=C1CO[C@@H]2C[C@@H]1CCC1(C)OC1CC/C(C)=C/CC[C@@]2(C)O (stereo partly drawn) | > 53.5 | 31.4 | 38.1 µM | > 100 | > 60.6 | 30.7 | 29.4 µM | > 100 | > 71.2 | 29.5 µM | > 20.3 | 16.7 | 15.1 | 36.4 | 24.7 | 13.9 | 15.4 | 44.7 | 28.2 | 15.1 |
| CC(C)[C@@H](CS(=O)(=O)C(C)C)N1C(=O)[C@@](C)(CC(=O)O)C[C@H](c2cccc(Cl)c2)[C@H]1c1ccc(Cl)cc1 | 75.2 | 15.4 | 66.1 µM | 36.3 | 3.52 | 15.1 | 17.2 µM | 6.82 | 11.3 | 7.14 µM | 20.8 | 0.394 | 18.2 | 12.9 | 0.282 | 0.388 | 1.96 | 0.381 | 0.333 | 0.303 |
| COc1cccc2c1C(=O)c1c(O)c3c(c(O)c1C2=O)C[C@@](O)(/C(C)=N\O)C[C@@H]3OC1CC(N)C(O)C(C)O1 (stereo partly drawn) | 11.1 | 10.8 | 2.38 µM | 7.31 | 9.97 | 8.16 | 2.29 µM | 6.02 | 2.94 | 49.2 µM | – | – | – | – | – | – | – | – | – | – |
| CC(C)c1ccc(O)c(=O)cc1 | > 100 | > 68.5 | > 41 µM and 4.89 µM | > 100 | – | 81.4 | 35.2 µM and 41.4 µM | 31 | 21.8 | 35.7 µM and 71.7 µM | 14.7 | 4.46 | 1.67 | 3.12 | 5.08 | 2.66 | 11.1 | 15.9 | – | 6.31 |
| CCOC(=O)c1cnc2c(cnn2CC)c1NN=C(C)C | > 100 | > 100 | > 100 µM | > 100 | > 100 | > 100 | > 100 µM | > 100 | > 100 | > 100 µM | 29.6 | 24 | 78.3 | 25.3 | 90.4 | 57.5 | 33.1 | 30.4 | 45.3 | 23.2 |
| OC(C(=Nc1ccccc1)c1ccccc1)c1ccccc1 (stereo not drawn) | 41.9 | 31.5 | 27.9 µM | 21 | 45.4 | 34.3 | 5.87 µM | 5.56 | 15 | 39.8 µM | – | – | – | – | – | – | – | – | – | – |
| C=C(C(=O)OC)[C@@H]1C[C@@H](O)[C@]2(C)CC/C=C(\C)CCC[C@H](C)[C@H](O)C1O2 | > 100 | > 100 | 46 µM | 45.4 | > 100 | > 100 | 79.5 µM | > 100 | > 100 | > 100 µM | > 100 | 57.5 | 24.2 | 3.71 | 31.7 | 75.5 | 26.3 | > 100 | 40.5 | 52.8 |
| COc1ccc2c(c1)C(=O)c1c-2n(CCCCl)c(=O)c2cc(N(C)C)ccc12 | > 100 | > 100 | – | 23.4 | > 100 | > 100 | 34.6 µM | > 100 | > 100 | > 100 µM | 33.1 | 36 | – | 3.42 | 28.6 | 73 | 11.2 | 43 | 41 | > 100 |
| CC(C)(CCC(C)(C)c1ccccc1)c1ccccc1 | 29.5 | 31.7 | 39.9 µM | 37.9 | 32.8 | 31.9 | 28.5 µM | 29.2 | 41.4 | – | – | – | – | – | – | – | – | – | – | – |
| c1ccc2c(c1)ccc1c3ccccc3ccc21 | > 50 | > 50 | > 50 µM | > 50 | > 50 | > 50 | > 50 µM | > 50 | > 50 | > 50 µM | > 50 | > 50 | > 50 | > 50 | > 50 | > 50 | > 50 | > 50 | > 50 | > 50 |
| CC1(C)CC[C@]2(C(=O)O)CC[C@]3(C)[C@H](CC[C@@H]4[C@@]5(C)CCC(=O)C(C)(C)[C@@H]5CC[C@]43C)[C@H]2[C@H]1OC(=O)C(F)(F)F | 29.5 | 26.1 | 41.5 µM | 22.6 | 25.4 | 29.7 | 20.6 µM | 25.2 | 20.3 | 27 µM | 14.3 | 13.3 | 9.51 | 8.08 | 5.02 | 7.65 | 8.11 | 10.1 | 6.66 | 13.7 |
| CN1CCN(c2cc(Nc3cc(C4CC4)[nH]n3)nc(Nc3ccc(CC(=O)NCc4cccc(F)c4)cc3)n2)CC1 | 4.04 | 10.6 | 7.49 µM | 4.8 | 2.05 | 3.68 | 3.08 µM | 2.94 | 16.2 | 4.73 µM | 0.934 | 2.01 | 0.0495 | 0.288 | 0.108 | 0.536 | 1.42 | 1.13 | 1.62 | 1.69 |
| COc1ccc(Nc2c[nH]c(=O)[nH]c2=O)cc1 | > 100 | > 100 | > 100 µM | > 100 | > 100 | – | > 100 µM | > 100 | > 100 | > 100 µM | – | – | – | – | – | – | – | – | – | – |
| Cc1ccccc1NC(=O)c1sc2nc3c(cc2c1N)C(=O)CCC3 | > 100 | > 100 | > 100 µM | > 100 | > 100 | 10.6 | 11.6 µM | > 100 | > 100 | > 100 µM | 9.02 | 15.8 | 2.55 | > 100 | 1.58 | 2.63 | 0.613 | 1.97 | 0.999 | 34.4 |
| Oc1ccc(SCc2ccc(NCc3ccccc3)cc2)cc1 | 26.8 | > 100 | 64.8 µM | > 100 | > 100 | > 100 | 47.3 µM | > 100 | 76.4 | 56.5 µM | – | – | – | – | – | – | – | – | – | – |
| COc1ccc(-c2[nH]ncc2-c2cc(OC)c(OC)c(OC)c2)cc1 | 13.9 | > 42.9 | 28.8 µM | 0.901 | 22.5 | 1.3 | 0.0551 µM | > 50.3 | 22.5 | 11.2 µM | < 0.01 | < 0.01 | < 0.0163 | < 0.01 | < 0.01 | < 0.01 | < 0.01 | – | < 0.01 | < 0.01 |
| CN(C)CCCC(=O)Nc1ccc(Cn2nnc3c2C(=O)c2nnn(Cc4ccc(NC(=O)CCCN(C)C)cc4)c2C3=O)cc1 | 44.2 | > 100 | 6.35 µM | 5.82 | 3.52 | 10.8 | 2.84 µM | 11.6 | – | > 100 µM | 18.2 | 38.9 | 2.04 | 2.51 | 1.45 | 2.82 | 1.48 | 3.25 | – | > 100 |
| CC(C)CC(=O)CC(O)C(Cl)(Cl)Cl (stereo not drawn) | > 100 | > 100 | > 100 µM | – | > 100 | – | > 100 µM | > 100 | > 100 | > 100 µM | – | – | – | – | – | – | – | – | – | – |
| Clc1ccc(Nc2nc3ccccc3c3occc23)cc1 | 15.1 | 18.9 | – | 13.2 | > 50 | 35.2 | 14.1 µM | 19.2 | 18.3 | 22.6 µM | 8.33 | 9.16 | – | 6.53 | 10.9 | 13 | 7.52 | 10.4 | 8.1 | 7.91 |
| COC(=O)c1cc2c(cc1Cl)SC(N(N(C)C)S(=O)(=O)c1ccc(Cl)cc1)=NS2(=O)=O | > 100 | 38.5 | 37.1 µM | 30.9 | 34.8 | 37.4 | 27.7 µM | – | 35.6 | > 100 µM | 31.3 | 17.8 | 14.1 | 14.5 | 17 | 18.7 | 14.6 | – | 17 | 25.3 |
| CC(=O)OC1=C2C(CC3C4CC=C5CC(OC(C)=O)CCC5(C)C4CCC23C)C2C(=O)N(Cc3ccccc3)C(=O)C2C1 (stereo not drawn) | > 100 | > 100 | > 100 µM | – | 15 | 31.1 | 4.79 µM | > 100 | 34.3 | 8.39 µM | 20.5 | 9.65 | 3.39 | – | 2.71 | 3.73 | 2.1 | 10.9 | 4.42 | 2.56 |
